This data set deals with CCRIS mutagenicity, Ames/micronucleus/aberration tests. As to the kind of experiment: CCRIS mutagenicity studies.

Active and inactive are the calls of the source. The rule behind the calls is not given here.

With `CC(C)NO`, the mutagenic call is “active; positive” (Test System: CHINESE HAMSTER V-79, Strain/Indicator: V-79/6-THIOGUANINE, Metabolic Activation: NONE, Method: SUSPENSION) and “inactive; negative” (Test System: UDS RODENT HEPATOCYTES, Strain/Indicator: THY INCORP (NON-S-PHASE), Metabolic Activation: NONE, Method: LIQUID SCINTILLATION COUNTING).
Consider `C/C=C/C=O`, for which the mutagenic call is, setting by setting: (End Point: IN VITRO CHROMOSOMAL ABERRATIONS, Test System: CHINESE HAMSTER OVARY CELLS, Metabolic Activation: NONE) “active; positive”; (End Point: IN VITRO CHROMOSOMAL ABERRATIONS, Test System: CHINESE HAMSTER OVARY CELLS, Metabolic Activation: RAT, LIVER, S-9, AROCLOR 1254) “active; positive”; (End Point: IN VITRO CHROMOSOMAL ABERRATIONS, Test System: CHL CELLS, Metabolic Activation: RAT, LIVER, S-9, SODIUM PHENOBARBITAL AND 5,6-BENZOFLAVONE) “active; positive (structural changes)”; (End Point: In vivo chromosomal aberrations, Test System: Bone marrow, Species: Mouse, Strain/Sex: Swiss/ 3 males and 2 females per group, Route: Intraperitoneal) “active; positive (statistically significant at all doses and durations) (structural aber”; (End Point: In vivo chromosomal aberrations, Test System: Spermatocytes, Species: Mouse, Strain/Sex: Swiss/males, Route: Intraperitoneal) “active; positive (dose-related) (autosomal univalents, x-y univalents, fragments or brea”; (Test System: AMES SALMONELLA TYPHIMURIUM, Strain/Indicator: TA98, Metabolic Activation: NONE, Method: FLUCTUATION (MICROTITER)) “active; positive”. For the same compound, the mutagenic call reads like this: (Test System: AMES SALMONELLA TYPHIMURIUM, Strain/Indicator: TA98, Metabolic Activation: NONE, Method: PREINCUBATION) “active; positive”; (Test System: AMES SALMONELLA TYPHIMURIUM, Strain/Indicator: TA98, Metabolic Activation: RAT LIVER S-9, PHENOBARBITAL AND BETA-NAPHTHOFLAVONE, Method: PREINCUBATION) “active; positive”; (Test System: AMES SALMONELLA TYPHIMURIUM, Strain/Indicator: TA100, Metabolic Activation: NONE, Method: MODIFIED LIQUID SUSPENSION) “active; positive”; (Test System: AMES SALMONELLA TYPHIMURIUM, Strain/Indicator: TA100, Metabolic Activation: NONE, Method: PREINCUBATION) “active; positive”; (Test System: AMES SALMONELLA TYPHIMURIUM, Strain/Indicator: TA100, Metabolic Activation: NONE, Method: PREINCUBATION (THREEFOLD CELL DENSITY)) “active; positive”; (Test System: AMES SALMONELLA TYPHIMURIUM, Strain/Indicator: TA100, Metabolic Activation: RAT LIVER S-9, PHENOBARBITAL AND BETA-NAPHTHOFLAVONE, Method: PREINCUBATION) “active; positive”. The mutagenic call runs as follows: (Test System: AMES SALMONELLA TYPHIMURIUM, Strain/Indicator: TA100, Metabolic Activation: RAT, LIVER, S-9, AROCLOR 1254, Method: MODIFIED LIQUID SUSPENSION) “active; positive”; (Test System: AMES SALMONELLA TYPHIMURIUM, Strain/Indicator: TA100, Metabolic Activation: RAT, LIVER, S-9, AROCLOR 1254, Method: PREINCUBATION (THREEFOLD CELL DENSITY)) “active; positive”; (Test System: AMES SALMONELLA TYPHIMURIUM, Strain/Indicator: TA104, Metabolic Activation: NONE, Method: PREINCUBATION) “active; positive”; (Test System: AMES SALMONELLA TYPHIMURIUM, Strain/Indicator: TA1535, Metabolic Activation: NONE, Method: PREINCUBATION) “inactive; negative”; (Test System: AMES SALMONELLA TYPHIMURIUM, Strain/Indicator: TA1535, Metabolic Activation: RAT LIVER S-9, PHENOBARBITAL AND BETA-NAPHTHOFLAVONE, Method: PREINCUBATION) “inactive; negative”; (Test System: AMES SALMONELLA TYPHIMURIUM, Strain/Indicator: TA1537, Metabolic Activation: NONE, Method: FLUCTUATION (MICROTITER)) “inactive; negative”. Besides, the mutagenic call by setting is: (Test System: AMES SALMONELLA TYPHIMURIUM, Strain/Indicator: TA1537, Metabolic Activation: RAT LIVER S-9, PHENOBARBITAL AND BETA-NAPHTHOFLAVONE, Method: PREINCUBATION) “inactive; negative”; (Test System: AMES SALMONELLA TYPHIMURIUM, Strain/Indicator: TA7001, Metabolic Activation: NONE, Method: FLUCTUATION (MICROTITER)) “inactive; negative”; (Test System: AMES SALMONELLA TYPHIMURIUM, Strain/Indicator: TA7002, Metabolic Activation: NONE, Method: FLUCTUATION (MICROTITER)) “active; positive”; (Test System: AMES SALMONELLA TYPHIMURIUM, Strain/Indicator: TA7003, Metabolic Activation: NONE, Method: FLUCTUATION (MICROTITER)) “inactive; negative”; (Test System: AMES SALMONELLA TYPHIMURIUM, Strain/Indicator: TA7004, Metabolic Activation: NONE, Method: FLUCTUATION (MICROTITER)) “active; positive”; (Test System: AMES SALMONELLA TYPHIMURIUM, Strain/Indicator: TA7005, Metabolic Activation: NONE, Method: FLUCTUATION (MICROTITER)) “active; positive”. The mutagenic call (Test System: AMES SALMONELLA TYPHIMURIUM, Strain/Indicator: TA7006, Metabolic Activation: NONE, Method: FLUCTUATION (MICROTITER)) was “active; positive”; the mutagenic call (Test System: CHINESE HAMSTER OVARY, Strain/Indicator: AS52/6-THIOGUANINE, Metabolic Activation: NONE, Method: STANDARD PLATE) was “inactive; negative”; the mutagenic call (Test System: E.COLI, Strain/Indicator: WP2UVRA, Metabolic Activation: NONE, Method: PREINCUBATION) is “inactive; negative”; the mutagenic call (Test System: E.COLI, Strain/Indicator: WP2UVRA, Metabolic Activation: RAT LIVER S-9, PHENOBARBITAL AND BETA-NAPHTHOFLAVONE, Method: PREINCUBATION) is “inactive; negative”.

These data come from PubChem BioAssay AID1259407 (Chemical Carcinogenesis Research Information System (CCRIS), 2018).
